Earlier results, collected in patent US6683112B2, “Gabapentin prodrugs and formulations” (Andrx Corporation, priority 2000, dated 2004).

Tests used:
[1] = in water and in both basic and acidic conditions

Q: Which results are given for `NCC1(CC(=O)O)CCCCC1` [Gabapentin, 1-(aminomethyl)cyclohexaneacetic acid]?
A: metabolism (in humans): not extensively metabolized; route of elimination (in humans): eliminated via renal excretion essentially unchanged; oral bioavailability (typical dosage range 300-600 mgs T.I.D.): approximately sixty; elimination half life (unaltered by dose or following multiple dosing): five to seven; solubility [1]: highly soluble
